Key:
Toxicity (LD50) = format: in vivo
[1] = tested on: pathogenic bacteria of the genus Diplococcus and Streptococcus; assay: In vivo activity against experimental infections in mice, general statement; details: in words
[2] = tested on: clinically isolated Streptococcus strains; assay: Activity against clinically isolated Streptococcus strains, general statement; format: cell-based; details: in words
Source text: (§1) Another favorable characteristic of the antibiotic substance gardimycin is that it is active against clinically isolated Streptococcus strains.

[3] = tested on: Streptococcus haemolyticus C 203; assay: In vitro minimal inhibitory concentration (Table 1); format: cell-based
Source text: (§2) Metabolite A, metabolite B (hereafter referred to as gardimycin) as well as its salts with alkali and alkali earth metals and metabolite C show good antibacterial in vitro and in vivo activities.

[4] = tested on: Streptococcus faecalis ATCC 10541; assay: as above; format: cell-based
Source text: as §2

[5] = tested on: Neisseria gonorrheae ATCC 9826; assay: as above; format: cell-based
Source text: as §2

[6] = tested on: Micrococcus flavus ATCC 10240; assay: as above; format: cell-based
Source text: as §2

[7] = tested on: Diplococcus pneumoniae UC 41; assay: as above; format: cell-based
Source text: as §2

[8] = tested on: Staphylococcus aureus ATCC 538; assay: as above; format: cell-based
Source text: as §2

[9] = tested on: Clostridium perfringens ISS 30543; format: cell-based
[10] = tested on: Diplococcus pneumoniae UC 41; assay: Experimental infection in mice; format: in vivo
[11] = tested on: Streptococcus haemolyticus C 203; assay: Experimental infection in mice; format: in vivo
[12] = tested on: Streptococcus haemolyticus; assay: Minimal inhibitory concentration, clinically isolated strains (Table 2); format: cell-based
Source text: as §1

Streptococcus viridans = assay: as above; format: cell-based
Source text: as §1

[13] = Antibacterial in vivo activity, general statement; details: in words
Source text: as §2

[14] = Antibacterial in vitro activity, general statement; format: cell-based; details: in words
Source text: as §2

Substance: gardimycin
- LD50 (Toxicity (LD50); i.p.): higher than 1000 mg/Kg
- LD50 (Toxicity (LD50); i.v.): about 2000 mg/Kg
- toxicity (Toxicity (LD50); in words): very low toxicity
- in vivo activity against experimental infections [1]: very interesting in vivo activity
- activity against clinically isolated Streptococcus strains [2]: active
- Minimal inhibitory concentration [3]: 2 µg/mL
- Minimal inhibitory concentration [4]: 50 µg/mL
- Minimal inhibitory concentration [5]: 20 µg/mL
- Minimal inhibitory concentration [6]: 1 µg/mL
- Minimal inhibitory concentration [7]: 50 µg/mL
- Minimal inhibitory concentration [8]: 50 µg/mL
- Minimal inhibitory concentration [9]: 2 µg/mL
- ED50 [10]: 30 mg/kg
- ED50 [11]: 0.75 mg/kg
- Minimal inhibitory concentration ([12]; clinically isolated strain 2078): 1 µg/mL
- Minimal inhibitory concentration ([12]; clinically isolated strain 2087): 1 µg/mL
- Minimal inhibitory concentration (Streptococcus viridans; clinically isolated strain 2057): 5 µg/mL
- Minimal inhibitory concentration (Streptococcus viridans; clinically isolated strain 2085): 2 µg/mL
- antibacterial in vivo activity [13]: good
- antibacterial in vitro activity [14]: good

— US4022884A, “Gardimycin and process for producing same” (Gruppo Lepetit S.p.A., priority 1974, dated 1977)
